Laboratory results reported in patent US20100190794A1, “Herbicidally Active Composition” (BASF SE, priority 2007, published 2010).

Tests used:
POAAN = assay: greenhouse test, pre-emergence treatment; format: in vivo, Poa annua; settings: 6.25 g/ha a.s., Use Example 6
Excerpt: (§1) The culture containers used were plastic pots containing loamy sand with approximately 3.0% of humus as substrate. The seeds of the test plants were sown separately for each species.
(§2) For the pre-emergence treatment, the active compounds, suspended or emulsified in water, were applied directly after sowing by means of finely distributing nozzles. The containers were irrigated gently to promote germination and growth and subsequently covered with transparent plastic hoods until the plants had rooted. This cover caused uniform germination of the test plants unless this was adversely affected by the active compounds.
(§3) Depending on the species, the plants were kept at 10-25° C. and 20-35° C., respectively. The test period extended over 2 to 4 weeks. During this time, the plants were tended and their response to the individual treatments was evaluated.
(§4) Evaluation was carried out using a scale from 0 to 100. 100 means no emergence of the plants, or complete destruction of at least the above-ground parts, and 0 means no damage or normal course of growth. Good herbicidal activity is given at values of at least 70, and very good herbicidal activity is given at values of at least 85.
The respective stated components A and B, and if appropriate, C were formulated as a 5% by weight or 10% by weight strength emulsion concentrate or a commercially available formulation of component B was used and, with addition of the amount of solvent system, introduced into the spray liquor used for applying the active compound. In the examples, the solvent used was water.
(§5) The test period extended over 20 or 21 days. During this time, the plants were tended, and their reactions to the treatment with active compound was monitored.
What was evaluated was the damage by the chemical compositions using a scale of from 0 to 100%, in comparison to the untreated control plants. 0 means no damage, and 100 means complete destruction of the plants.
In the examples below, using the method of S. R. Colby (1967) “Calculating synergistic and antagonistic responses of herbicide combinations”, Weeds 15, p. 22 ff., the value E, which is expected if the activity of the individual active compounds is only additive, was calculated.
where X=percent activity using active compound A at an application rate a; Y=percent activity using active compound B at an application rate b; E=expected activity (in %) by A+B at application rates a+b.
(§6) If the value found in experiments is higher than the value E calculated according to Colby, a synergistic effect is present.

AVEFA = assay: greenhouse test, pre-emergence treatment; format: in vivo, Avena fatua; settings: 6.25 g/ha a.s., Use Example 6
Excerpt: as §1, §2, §3
as §4, with “85. […]” for “85.”
as §5
What was evaluated was the damage by the chemical compositions using a scale of from 0 to 100%, in comparison to the untreated control plants. […]
In the examples below, using the method of S. R. Colby (1967) “Calculating synergistic and antagonistic responses of herbicide combinations”, Weeds 15, p. 22 ff., the value E, which is expected if the activity of the individual active compounds is only additive, was calculated. […]
as §6

CC(C)N(C)S(=O)(=O)NC(=O)c1cc(-n2c(=O)cc(C(F)(F)F)n(C)c2=O)c(F)cc1Cl [2-chloro-5-[3,6-dihydro-3-methyl-2,6-dioxo-4-(trifluoromethyl)-1(2H)-pyrimidinyl]-4-fluoro-N-[(isopropyl)methylsulfamoyl]benzamide, reference compound]
Herbicidal action in % after 20 days against POAAN (POAAN): 0%
Herbicidal action in % after 20 days against AVEFA (AVEFA): 0%
